The record followed here is patent US6087358A (priority 1997, dated 2000).

In brackets after ≈: the same amount, converted by molar mass.

For the assay, the system named is Mycobacterium tuberculosis (multidrugresistant strain). The assay is described as follows: microbe, parasite or virus in culture. The class given is cell-based. The following applies: read-out: MIC, column C, 3(S) compounds.
As for `O=[N+]([O-])c1cn2c(n1)OC[C@@H](OCc1ccc(OCc3ccccc3)cc1)C2` [PA-647], the MIC is at most 0.015 µg/mL.
In the case of `CC(C)(C)c1ccc(CO[C@@H]2COc3nc([N+](=O)[O-])cn3C2)cc1` [PA-653], the MIC is at most 0.015 µg/mL.
In the case of `CCCCc1ccc(CO[C@@H]2COc3nc([N+](=O)[O-])cn3C2)cc1` [PA-822] it was at most 0.015 µg/mL.
In the case of `O=[N+]([O-])c1cn2c(n1)OC[C@@H](OCc1ccc(OC(F)(F)F)cc1)C2` [PA-824, 3S 4-(Trifluromethoxy)benzyloxy-6-nitro-2H-3,4-dihydro-[2-1b]imidazopyran] it was 0.13 µg/mL (≈ 0.362 µM).
